Reference: ChEMBL document CHEMBL3994622, “Design and synthesis of new RAF kinase-inhibiting antiproliferative quinoline derivatives. Part 2: Diarylurea derivatives” (Eur J Med Chem, 2017)

How the values were obtained:
Format in all cases: functional
NCI-H522 [1] = experiment: Growth inhibition of human NCI-H522 cells assessed as cell growth at 0.01 uM incubated for 48 hrs by sulforhodamine B assay relative to control; settings: NCI-H522, 48 h, read-out: Activity
HCC 2998 = experiment: Growth inhibition of human HCC2998 cells assessed as cell growth at 0.01 uM incubated for 48 hrs by sulforhodamine B assay relative to control; settings: HCC 2998, 48 h, read-out: Activity
UO-31 = experiment: Growth inhibition of human UO31 cells assessed as cell growth at 0.01 uM incubated for 48 hrs by sulforhodamine B assay relative to control; settings: UO-31, 48 h, read-out: Activity
MDA-MB-231 = experiment: Growth inhibition of human MDA-MB-231 cells assessed as cell growth at 0.01 uM incubated for 48 hrs by sulforhodamine B assay relative to control; settings: MDA-MB-231, 48 h, read-out: Activity
HOP-62 = experiment: Growth inhibition of human HOP62 cells assessed as cell growth at 0.1 uM incubated for 48 hrs by sulforhodamine B assay relative to control; settings: HOP-62, 48 h, read-out: Activity
SK-OV-3 = experiment: Growth inhibition of human SKOV3 cells assessed as cell growth at 0.1 uM incubated for 48 hrs by sulforhodamine B assay relative to control; settings: SK-OV-3, 48 h, read-out: Activity
ACHN [2] = experiment: Growth inhibition of human ACHN cells assessed as cell growth at 0.1 uM incubated for 48 hrs by sulforhodamine B assay relative to control; settings: read-out: Activity
RPMI-8226 = experiment: Growth inhibition of human RPMI8226 cells assessed as cell growth at 1 uM incubated for 48 hrs by sulforhodamine B assay relative to control; settings: RPMI-8226, 48 h, read-out: Activity
SF-539 [3] = experiment: Growth inhibition of human SF539 cells assessed as cell growth at 1 uM incubated for 48 hrs by sulforhodamine B assay relative to control; settings: SF-539, 48 h, read-out: Activity
Malme-3M = experiment: Growth inhibition of human MALME-3M cells assessed as cell growth at 1 uM incubated for 48 hrs by sulforhodamine B assay relative to control; settings: read-out: Activity
UACC-257 = experiment: Growth inhibition of human UACC257 cells assessed as cell growth at 1 uM incubated for 48 hrs by sulforhodamine B assay relative to control; settings: UACC-257, 48 h, read-out: Activity
UACC-62 = experiment: Growth inhibition of human UACC62 cells assessed as cell growth at 1 uM incubated for 48 hrs by sulforhodamine B assay relative to control; settings: UACC-62, 48 h, read-out: Activity
MOLT-4 = experiment: Growth inhibition of human MOLT4 cells assessed as cell growth at 10 uM incubated for 48 hrs by sulforhodamine B assay relative to control; settings: MOLT-4, 48 h, read-out: Activity
NCI-H226 [4] = experiment: Growth inhibition of human NCI-H226 cells assessed as cell growth at 10 uM incubated for 48 hrs by sulforhodamine B assay relative to control; settings: NCI-H226, 48 h, read-out: Activity
SK-MEL-5 = experiment: Growth inhibition of human SK-MEL-5 cells assessed as cell growth at 10 uM incubated for 48 hrs by sulforhodamine B assay relative to control; settings: SK-MEL-5, 48 h, read-out: Activity
PC-3 [5] = experiment: Growth inhibition of human PC3 cells assessed as cell growth at 10 uM incubated for 48 hrs by sulforhodamine B assay relative to control; settings: PC-3, 48 h, read-out: Activity
MCF7 = experiment: Growth inhibition of human MCF7 cells assessed as cell growth at 10 uM incubated for 48 hrs by sulforhodamine B assay relative to control; settings: MCF7, 48 h, read-out: Activity
ACHN [6] = experiment: Growth inhibition of human ACHN cells assessed as cell growth at 100 uM incubated for 48 hrs by sulforhodamine B assay relative to control; settings: read-out: Activity
NCI-H226 [7] = experiment: Growth inhibition of human NCI-H226 cells assessed as cell growth at 0.003 uM incubated for 48 hrs by sulforhodamine B assay relative to control; settings: NCI-H226, 48 h, read-out: Activity
COLO 205 = experiment: Growth inhibition of human COLO205 cells assessed as cell growth at 0.003 uM incubated for 48 hrs by sulforhodamine B assay relative to control; settings: COLO 205, 48 h, read-out: Activity
M14 = experiment: Growth inhibition of human M14 cells assessed as cell growth at 0.003 uM incubated for 48 hrs by sulforhodamine B assay relative to control; settings: M14, 48 h, read-out: Activity
NCI-H522 [8] = experiment: Growth inhibition of human NCI-H522 cells assessed as cell growth at 0.03 uM incubated for 48 hrs by sulforhodamine B assay relative to control; settings: NCI-H522, 48 h, read-out: Activity
KM12 [9] = experiment: Growth inhibition of human KM12 cells assessed as cell growth at 0.03 uM incubated for 48 hrs by sulforhodamine B assay relative to control; settings: KM12, 48 h, read-out: Activity
NCI/ADR-RES = experiment: Growth inhibition of human NCI/ADR-RES cells assessed as cell growth at 0.03 uM incubated for 48 hrs by sulforhodamine B assay relative to control; settings: read-out: Activity
NCI-H322M = experiment: Growth inhibition of human NCI-H322M cells assessed as cell growth at 0.3 uM incubated for 48 hrs by sulforhodamine B assay relative to control; settings: read-out: Activity
KM12 [10] = experiment: Growth inhibition of human KM12 cells assessed as cell growth at 0.3 uM incubated for 48 hrs by sulforhodamine B assay relative to control; settings: KM12, 48 h, read-out: Activity
786-0 = experiment: Growth inhibition of human 786-0 cells assessed as cell growth at 0.3 uM incubated for 48 hrs by sulforhodamine B assay relative to control; settings: 786-0, 48 h, read-out: Activity
PC-3 [11] = experiment: Growth inhibition of human PC3 cells assessed as cell growth at 0.3 uM incubated for 48 hrs by sulforhodamine B assay relative to control; settings: PC-3, 48 h, read-out: Activity
HT-29 = experiment: Growth inhibition of human HT-29 cells assessed as cell growth at 3 uM incubated for 48 hrs by sulforhodamine B assay relative to control; settings: HT-29, 48 h, read-out: Activity
SF-539 [12] = experiment: Growth inhibition of human SF539 cells assessed as cell growth at 3 uM incubated for 48 hrs by sulforhodamine B assay relative to control; settings: SF-539, 48 h, read-out: Activity
SNB-75 = experiment: Growth inhibition of human SNB75 cells assessed as cell growth at 3 uM incubated for 48 hrs by sulforhodamine B assay relative to control; settings: SNB-75, 48 h, read-out: Activity
SN12C [13] = experiment: Growth inhibition of human SN12C cells assessed as cell growth at 3 uM incubated for 48 hrs by sulforhodamine B assay relative to control; settings: read-out: Activity
NCI-H226 [14] = experiment: Growth inhibition of human NCI-H226 cells assessed as cell growth at 30 uM incubated for 48 hrs by sulforhodamine B assay relative to control; settings: NCI-H226, 48 h, read-out: Activity
CAKI-1 = experiment: Growth inhibition of human Caki1 cells assessed as cell growth at 30 uM incubated for 48 hrs by sulforhodamine B assay relative to control; settings: CAKI-1, 48 h, read-out: Activity
SN12C [15] = experiment: Growth inhibition of human SN12C cells assessed as cell growth at 30 uM incubated for 48 hrs by sulforhodamine B assay relative to control; settings: read-out: Activity

Row | Structure (SMILES) | growth at 0.01 µM (NCI-H522 [1]) [%] | growth at 0.01 µM (HCC 2998) [%] | growth at 0.01 µM (UO-31) [%] | growth at 0.01 µM (MDA-MB-231) [%] | growth at 0.1 µM (HOP-62) [%] | growth at 0.1 µM (SK-OV-3) [%] | growth at 0.1 µM (ACHN [2]) [%] | growth at 1 µM (RPMI-8226) [%] | growth at 1 µM (SF-539 [3]) [%] | growth at 1 µM (Malme-3M) [%] | growth at 1 µM (UACC-257) [%] | growth at 1 µM (UACC-62) [%] | growth at 10 µM (MOLT-4) [%] | growth at 10 µM (NCI-H226 [4]) [%] | growth at 10 µM (SK-MEL-5) [%] | growth at 10 µM (PC-3 [5]) [%] | growth at 10 µM (MCF7) [%] | growth at 100 µM (ACHN [6]) [%] | growth at 0.003 µM (NCI-H226 [7]) [%] | growth at 0.003 µM (COLO 205) [%] | other results
1 | COc1cc2cc(Oc3ccc(NC(=O)Nc4ccc(Cl)c(Cl)c4)cc3)c(C)nc2cc1OC | 99 | 101 | 96 | 93 | 104 | 107 | 105 | 69 | 103 | 109 | 92 | 77 | 7 | -7 | -9 | -28 | 8 | -61 | – | – | –
2 | COc1cc2cc(Oc3ccc(NC(=O)Nc4cc(C(F)(F)F)cc(C(F)(F)F)c4)cc3)c(C)nc2cc1OC | 92 | 99 | 82 | 101 | 94 | 104 | 98 | 23 | 73 | 54 | 107 | 35 | -36 | -60 | -79 | -41 | -59 | -89 | – | – | –
3 | COc1cc2cc(Oc3ccc(NC(=O)Nc4ccc(Cl)c(C(F)(F)F)c4)cc3)c(C)nc2cc1OC | – | – | – | – | – | – | – | – | – | – | – | – | – | – | – | – | – | – | 96 | 97 | growth at 0.003 µM (M14): 97%; growth at 0.03 µM (NCI-H522 [8]): 93%; growth at 0.03 µM (KM12 [9]): 93%; growth at 0.03 µM (NCI/ADR-RES): 98%; growth at 0.3 µM (NCI-H322M): 112%; growth at 0.3 µM (KM12 [10]): 96%; growth at 0.3 µM (786-0): 93%; growth at 0.3 µM (PC-3 [11]): 83%; growth at 3 µM (HT-29): 8%; growth at 3 µM (SF-539 [12]): 34%; growth at 3 µM (SNB-75): 10%; growth at 3 µM (SN12C [13]): 21%; growth at 30 µM (NCI-H226 [14]): -49%; growth at 30 µM (CAKI-1): -55%; growth at 30 µM (SN12C [15]): -56%
4 | Cc1nc2cc(O)c(O)cc2cc1Oc1ccc(NC(=O)Nc2ccc(Cl)c(Cl)c2)cc1 | – | – | – | – | – | – | – | – | – | – | – | – | – | – | – | – | – | – | 101 | 107 | growth at 0.003 µM (M14): 96%; growth at 0.03 µM (NCI-H522 [8]): 95%; growth at 0.03 µM (KM12 [9]): 103%; growth at 0.03 µM (NCI/ADR-RES): 97%; growth at 0.3 µM (NCI-H322M): 110%; growth at 0.3 µM (KM12 [10]): 104%; growth at 0.3 µM (786-0): 95%; growth at 0.3 µM (PC-3 [11]): 97%; growth at 3 µM (HT-29): 98%; growth at 3 µM (SF-539 [12]): 103%; growth at 3 µM (SNB-75): 83%; growth at 3 µM (SN12C [13]): 92%; growth at 30 µM (NCI-H226 [14]): 9%; growth at 30 µM (CAKI-1): -2%; growth at 30 µM (SN12C [15]): -3%
